What was measured:
[1] = system: luciferase-tagged MOLM13 cells; assay: In vivo MOLM13 xenograft study, efficacy; details: MOLM13-engrafted NCG mice; KPT-9274 100 mg/kg daily, AR-42 20 mg/kg every another day, oral gavage
Method: NCG mice were engrafted with luciferase-tagged MOLM13 cells and treated with vehicle, 20 mg/kg AR-42, 100 mg/kg KPT-9274 and AR-42/KPT-9274 in combination.
Male NOD-Prkdc^em26cd52Il2rg^em26cd22/NjuCrl (NCG) mice (RRID:IMSR_CRL:572) (aged 6-8 weeks) were obtained from Charles River Laboratory. Mice were group-housed under conditions of constant photoperiod (12-hour light/12-hour dark), temperature, and humidity with adlibitum access to water and irradiated standard pelleted chow. 104 luciferase-tagged MOLM13 cells were injected via tail vein into NCG mice. On day 5 post-engraftment, mice were randomized to receive placebo (vehicle; Karyopharm Therapeutics) once daily, 100 mg/kg of KPT-9274 (Karyopharm Therapeutics) once daily, 20 mg/kg AR-42 every another day and the combination of KPT-9274 and AR-42 via oral gavage. Overall survival was the primary end point for the majority of the mice. A separate cohort of mice per group was used to monitor leukemic progression using IVIS imaging. Mice were monitored by animal technicians who were blinded to the treatment groups and determined when mice met early removal criteria (20% weight loss, lethargy, hunching, and poor body condition). Mice were euthanized by CO2 inhalation.
To determine the clinical relevance of the drug combination, the efficacy of co-treatment of AR-42 and KPT-9274 was tested in the MOLM13 xenograft model. […]

IDH2-WT TF-1 cells = assay: Phospho-H2A.X (pS139) flow cytometry; assay type: cell-based; details: IDH2-WT TF-1, 48 hours, 0.8 μM AR-42, 0.1 μM KPT-9274
Method: (§1) Thereafter, cells were fixed, permeabilized and stained with BV421 mouse anti-H2A.X (pS139) (Clone N1-431). Stained cells were analyzed by flow cytometry. Results are shown as mean±SEM of duplicates. *p<0.05. N.S.: not significant. […] Results are shown as mean±SEM of duplicates. *p<0.05. […] MOLM13 cells were treated with vehicle control, 0.4 μM or 0.8 μM AR-42 alone, 0.1 μM or 0.25 μM KPT-2974 alone and drug combination for 24 hours before being subject to Western blotting analysis of HR, NHEJ and ATM markers. GAPDH served as loading control. Results are representative of two independent experiments. In the FIG. the treatment concentrations, protein detected in the given Western blot, and molecular weight of the protein detected are as shown in the figure. […] Scrambled or shHDAC8-transduced MOLM13 cells were treated with vehicle, 0.1 μM or 0.25 μM KPT-2974 before being subject to immunoblotting analysis of DNA repair targets. GAPDH serves as loading control. Results are representative of two independent experiments. In the FIG. the treatment concentrations, protein detected in the given Western blot, and molecular weight of the protein detected are as shown in the figure. […] PAPR1 was immunoprecipitated and mono-ADP-ribosylation was detected by western blotting. Results are representative of two independent experiments. […]

[2] = system: NHEJ activity in EJDR-reporter-stable U2OS cells; assay: EJDR reporter assay, NHEJ DsRed; assay type: cell-based
Method: (§2) EJDR reporter assay. The EJDR assay was described previously (20). EJDR reporter cells were plated at 5×10^5 cells per well in 10% FBS and RPM11640. After drug treatments, cells were grown in 10% Tet-free FBS (100-800; Gemini) and RPM11640. Incorporated I-Sce1 was induced with Shield1 (632189; Clontech) and triamcinolone (TA) (T6510; Sigma Aldrich) ligands for 24 hours. NHEJ and HR repair activities were assessed 48 hours post induction by quantification of DsRed- and GFP-positive cells on Cytomics FC 500 Flow Cytometer (Beckman Coulter, Brea, CA).
(§3) It was unclear whether the potent ability of HDAC inhibitor to induce apoptosis of AML cells in combination with NAMPT inhibition was due to the loss of HR or NHEJ activity alone or both together. Accordingly, HR and NHEJ activities in AML cells exposed to these treatments were examined using the EJDR reporter system (FIG. 6B). EJDR-reporter-stable U2OS cells were treated with vehicle, single agents, or drug combination before being incubated with ligands, TA and Shield 1. […] The expression of D-NHEJ pathway factors, Ku70 and DNA-PKcs, and ATM pathway mediators, CHEK1 and CHEK2, were abolished by AR-42 and KPT-9274 co-treatment. […] Therefore, suppression of HDAC8 can attenuate HR and D-NHEJ gene expressions, resulting in NAMPT inhibitor sensitivity.

[3] = system: HR activity in EJDR-reporter-stable U2OS cells; assay: EJDR reporter assay, HR-GFP; assay type: cell-based; details: ISceI-induced
Method: as §2, §3

MOLM13 cells = assay: Western blotting of HR, NHEJ and ATM markers; assay type: cell-based, human
Method: as §1

Row | Structure (SMILES) | median survival time [1] [days] | fluorescence intensity of phospho-H2A.X staining (IDH2-WT TF-1 cells) | NHEJ activity (percentage of DsRed+ cells) [2] | HR activity (HR-GFP reporter) [3] | levels of HR components CtIP, Rad51, phosphorylated BRCA1 and phosphorylated ATM (MOLM13 cells; 0.4 μM and 0.8 μM AR-42, monotherapy or with KPT-9274, 24 hours) | abundance of D-NHEJ and ATM pathway mediators (MOLM13 cells; shHDAC8-transduced MOLM13, 0.1 μM or 0.25 μM KPT-9274)
1 | CC(C)[C@H](C(=O)Nc1ccc(C(=O)NO)cc1)c1ccccc1 [AR-42, (S)—N-Hydroxy-4-(3-methyl-2-phenylbutanamido)benzamide] | 29 | slightly increased | NHEJ deficiency | nearly completely abolished | significantly reduced | 
2 | Nc1ccc(/C=C/C(=O)NCc2cc3cc(-c4ccc(C(=O)N5CCC(F)(F)CC5)cc4)cc(-c4ccc(F)cc4)c3o2)cn1 [KPT-9274, (E)-3-(6-aminopyridin-3-yl)-N-[[5-[4-(4,4-difluoropiperidine-1-carbonyl)phenyl]-7-(4-fluorophenyl)-1-benzofuran-2-yl]methyl]prop-2-enamide] | 27 | slightly increased | more robust reduction | did not impact HR activity |  | synergistically downregulated
